Assay: clinical trial: nasal and paranasal aerosol deposition by gamma camera imaging
Type: in vivo, human
Description: The method of the clinical trial was: Sinus air ventilation, nasal and paranasal aerosol deposition as well as nasal clearance of aerosols delivered by different pulsating airflows, such as a combined mode in comparison to intermittent mode. This was studied in 12 healthy volunteers using gamma camera imaging with 81 mKr gas and 99 mTc-DTPA aerosol. Masking techniques were used to visualize and quantify nasal and sinus aerosol deposition and retention.

## O=C([O-])CN(CCN(CC(=O)[O-])CC(=O)[O-])CCN(CC(=O)[O-])CC(=O)[O-].[99Tc+4] [99 mTc-DTPA]
12 healthy volunteers, maxillary and sphenoid sinuses, pulsating airflows
  total sinus deposition in % of the deposited activity: up to 24%
Combined mode, proband 1, post FESS volunteer
  total sinus deposition in % of the deposited activity: 14%
Combined mode, proband 2, normal volunteer
  total sinus deposition in % of the deposited activity: 6%
Intermittent mode, proband 1, post FESS volunteer
  total sinus deposition in % of the deposited activity: 24%
Intermittent mode, proband 2, normal volunteer
  total sinus deposition in % of the deposited activity: 0%

From patent US20130112197A1, “OPERATING METHOD FOR AN AEROSOL DELIVERY DEVICE AND AEROSOL DELIVERY DEVICE” (PARI Pharma GmbH, priority 2010, published 2013)
